Assay results as given in patent publication US6713645B1, “Substituted tricyclics” (Eli Lilly and Company, priority 1996, dated 2004).

melting point [°C]	Compound
240 to 242	NC(=O)c1cccc2c1c1c(OCC(=O)O)ccc(Cl)c1n2Cc1ccccc1 [Example 54, [9-benzyl-5-carbamoyl-1-chlorocarbazol-4-yl]oxyacetic acid]
189 to 190	COc1cc(OC)c2c3c(n(Cc4ccccc4)c2c1)CCCC3C(=O)NN (stereo not drawn) [Example 1, 9-benzyl-5,7-dimethoxy-1,2,3,4-tetrahydrocarbazole-4-carboxylic acid hydrazide]
170 to 172	COc1cc(OC(C)C(=O)O)c2c3c(C(N)=O)cccc3n(Cc3ccccc3)c2c1 (stereo not drawn) [Example 5, methyl [9-benzyl-4-carbamoyl-7-methoxycarbazol-5-yl]oxyacetic acid]

The next lines start with the molecule.

Compound	melting point [°C]
COc1cc(OCC(=O)[O-])c2c3c(n(Cc4ccccc4)c2c1)CCCC3C(N)=O.[Na+] (stereo not drawn)	251 to 254
Cc1ccc(OCC(=O)O)c2c3c(C(N)=O)cccc3n(Cc3ccccc3)c12 [Example 50, [9-benzyl-5-carbamoyl-1-methylcarbazol-4-yl]oxyacetic acid]	253 to 254
COc1cc(OC)c2c3c(n(Cc4ccccc4)c2c1)CCCC3C(N)=O (stereo not drawn) [Example 2, 9-benzyl-5,7-dimethoxy-1,2,3,4-tetrahydrocarbazole-4-carboxamide]	190 to 192
